PubChem BioAssay AID1963960 (Molecular Pharmacology Branch, DTP, NCI, 2024)

Test system: MDA-MB-468 spheroids with HUVEC/MSC, viability
Assay: Anticancer human tumor MDA-MB-468 cell line growth inhibition [PI3K];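 further: spheroids exposed to agents for seven days before readout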;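 on viability, T/C: 100% = DMSO vehicle control viability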
Details: for IC50: curve of first compound; for viability, T/C: stronger effect = lower value
Outline: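 Tumor cells were combined with HUVEC and MSCs into spheroids, then dosed with PI3K-inhibitor combinations over half-log ranges capped near clinical Cmax or 10 microM.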

[1] = second compound 0.0316 µM, first compound 0.0316 µM
[2] = second compound 0.0316 µM, first compound 0.1 µM
[3] = second compound 0.0316 µM, first compound 0.316 µM
[4] = second compound 0.0316 µM, first compound 1 µM
[5] = second compound 0.0316 µM, first compound 3.16 µM
[6] = second compound 0.0316 µM, first compound 10 µM
[7] = second compound 0.1 µM, first compound 0.0316 µM
[8] = second compound 0.1 µM, first compound 0.1 µM
[9] = second compound 0.1 µM, first compound 0.316 µM
[10] = second compound 0.1 µM, first compound 1 µM
[11] = second compound 0.1 µM, first compound 3.16 µM
[12] = second compound 0.1 µM, first compound 10 µM
[13] = second compound 0.316 µM, first compound 0.0316 µM
[14] = second compound 0.316 µM, first compound 0.1 µM
[15] = second compound 0.316 µM, first compound 0.316 µM
[16] = second compound 0.316 µM, first compound 1 µM
[17] = second compound 0.316 µM, first compound 3.16 µM
[18] = second compound 0.316 µM, first compound 10 µM
[19] = second compound 1 µM, first compound 0.0316 µM
[20] = second compound 1 µM, first compound 0.1 µM
[21] = second compound 1 µM, first compound 0.316 µM
[22] = second compound 1 µM, first compound 1 µM
[23] = second compound 1 µM, first compound 3.16 µM
[24] = second compound 1 µM, first compound 10 µM
[25] = second compound 3.16 µM, first compound 0.0316 µM
[26] = second compound 3.16 µM, first compound 0.1 µM
[27] = second compound 3.16 µM, first compound 0.316 µM
[28] = second compound 3.16 µM, first compound 1 µM
[29] = second compound 3.16 µM, first compound 3.16 µM
[30] = second compound 3.16 µM, first compound 10 µM
[31] = second compound 10 µM, first compound 0.0316 µM
[32] = second compound 10 µM, first compound 0.1 µM
[33] = second compound 10 µM, first compound 0.316 µM
[34] = second compound 10 µM, first compound 1 µM
[35] = second compound 10 µM, first compound 3.16 µM
[36] = second compound 10 µM, first compound 10 µM

With `Cn1nccc1Nc1nccc(-c2ccn(C(CO)c3ccc(Cl)c(F)c3)c(=O)c2)n1` (centres undefined) + Cc1nc(NC(=O)N2CCCC2C(N)=O)sc1-c1ccnc(C(C)(C)C(F)(F)F)c1 the IC50 (second compound 0.0316 µM) was > 10 µM, the IC50 (second compound 0.1 µM) was > 10 µM and the IC50 (second compound 0.316 µM) was > 10 µM. For the same compound, the IC50 (second compound 1 µM) was > 10 µM, the IC50 (second compound 3.16 µM) was 1.6 µM and the IC50 (second compound 10 µM) was < 0.0316 µM. The viability, T/C [1] was 88.7%, the viability, T/C [2] was 85.4% and the viability, T/C [3] was 84%. It also gave a viability, T/C [4] of 116%, a viability, T/C [5] of 107% and a viability, T/C [6] of 63.3%. For the same compound, the viability, T/C [7] was 92.2%, the viability, T/C [8] was 94.9% and the viability, T/C [9] was 81.7%. The viability, T/C [10] was 93.3%, the viability, T/C [11] was 113% and the viability, T/C [12] was 53.8%. It also gave a viability, T/C [13] of 103%, a viability, T/C [14] of 112% and a viability, T/C [15] of 95.9%. The viability, T/C [16] was 109%, the viability, T/C [17] was 61.1% and the viability, T/C [18] was 63.8%. For the same compound, the viability, T/C [19] was 81.3%, the viability, T/C [20] was 75.6% and the viability, T/C [21] was 80.4%. For the same compound, the viability, T/C [22] was 67.3%, the viability, T/C [23] was 62.9% and the viability, T/C [24] was 53.9%. The viability, T/C [25] was 82.3%, the viability, T/C [26] was 64.1% and the viability, T/C [27] was 63.4%. The viability, T/C [28] was 59.7%, the viability, T/C [29] was 42.3% and the viability, T/C [30] was 32.3%. For the same compound, the viability, T/C [31] was 39.6%, the viability, T/C [32] was 24.8% and the viability, T/C [33] was 29.6%. It also gave a viability, T/C [34] of 20.2%, a viability, T/C [35] of 17.6% and a viability, T/C [36] of 14.5%.
With `C[C@@H](NC(=O)c1ncnc(N)c1Cl)c1ncc(C(=O)Nc2cc(C(F)(F)F)c(Cl)cn2)s1` + Cc1nc(NC(=O)N2CCCC2C(N)=O)sc1-c1ccnc(C(C)(C)C(F)(F)F)c1 the IC50 (second compound 0.0316 µM) was > 10 µM, the IC50 (second compound 0.1 µM) was > 10 µM and the IC50 (second compound 0.316 µM) was > 10 µM. For the same compound, the IC50 (second compound 1 µM) was > 10 µM, the IC50 (second compound 3.16 µM) was 9.15 µM and the IC50 (second compound 10 µM) was < 0.0316 µM. For the same compound, the viability, T/C [1] was 75.5%, the viability, T/C [2] was 109% and the viability, T/C [3] was 85.4%. The viability, T/C [4] was 117%, the viability, T/C [5] was 89.7% and the viability, T/C [6] was 82.8%. For the same compound, the viability, T/C [7] was 88.4%, the viability, T/C [8] was 89.2% and the viability, T/C [9] was 86.4%. It also gave a viability, T/C [10] of 119%, a viability, T/C [11] of 95% and a viability, T/C [12] of 85.2%. The viability, T/C [13] was 107%, the viability, T/C [14] was 92.2% and the viability, T/C [15] was 78.8%. For the same compound, the viability, T/C [16] was 98.3%, the viability, T/C [17] was 85.3% and the viability, T/C [18] was 68.6%. For the same compound, the viability, T/C [19] was 91.9%, the viability, T/C [20] was 71.8% and the viability, T/C [21] was 72.7%. It also gave a viability, T/C [22] of 75.7%, a viability, T/C [23] of 69.1% and a viability, T/C [24] of 61.6%. It also gave a viability, T/C [25] of 84.7%, a viability, T/C [26] of 59.2% and a viability, T/C [27] of 74.8%. The viability, T/C [28] was 61.4%, the viability, T/C [29] was 59.3% and the viability, T/C [30] was 46.8%. For the same compound, the viability, T/C [31] was 40.2%, the viability, T/C [32] was 31.9% and the viability, T/C [33] was 39.3%. It also gave a viability, T/C [34] of 35.4%, a viability, T/C [35] of 34% and a viability, T/C [36] of 17.1%.
